In patent US9597370B2, “Method for promoting hair growth” (INDUSTRIAL TECHNOLOGY RESEARCH INSTITUTE, priority 2013, dated 2017):
“Also recorded” adds a separate entry of the source.

Key:
[1] = tested on: hair follicles on the dorsal skin at the refractory telogen phase; experiment: mouse model of hair regeneration (sample applied on dorsal skin at refractory telogen phase); format: in vivo; details: high dosage level (2000 μM) administrated on the dorsal skin once a day for 10 days; female C57BL/6 mice; negative = no hair growth
Text: The experimental model of the present disclosure is derived from the mouse model of the hair regeneration, which is studied by Dr. Chuong in University of Southern California.
The mouse model adopts female C57BL/6 mice (about 8 weeks).
In accordance with the reports (Muller-Rover et al., 2001; Plikus et al., 2009), after the hair removal on the dorsal skin of the female C57BL/6 mice by wax or uprooting, the hair follicles enter the anagen phase on the seventh day from hair removal. At this time, the dorsal hair will regenerate during the anagen phase, which continues fourteen days. Such step synchronizes all follicles on the dorsal skin.
The hair follicles on the dorsal skin enter the refractory telogen phase through the anagen phase. The refractory telogen phase continues twenty eight days. In the present disclosure, the sample solution is applied on the dorsal skin, where the hair follicle stays at the refractory telogen phase, to observe whether the peptides are beneficial to hair growth.
In some embodiments shown in FIG. 1, after the hair removal of the dorsal skin, the new growth hair is removed again at twenty first day after the first hair removal. […] The sample solution is applied on each of the sections for 10 days. The administration of the sample solution includes, but not limited to, the injection (50 μl) and the coating (10 μl). In addition, the dosage of the sample solution includes, but not limited to, the high dosage level (2000 μM) and the low dosage level (200 μM).
In order to avoid experimental error due to manual operation, a positive control and a negative control are predetermined on two sections. […] The second section 2 is coated with high dosage level of HGP or the pharmaceutical composition for 10 days (once a day). The third section 3 is coated with low dosage level of HGP or the pharmaceutical composition for 10 days (once a day). The fourth section 4 is coated with 100% alcohol for 10 days (once a day). The fourth section 4 is regarded as the negative control. The fifth section 5 is continuously injected with the high dosage of HGP or pharmaceutical composition for 10 days (once a day). The sixth section 6 is continuously injected with the low dosage of HGP or pharmaceutical composition for 10 days (once a day). The HGP prepared for the sections is the same amino acid sequence.
HGP or pharmaceutical composition having the same as referred at Table 1 is implemented through the above-mentioned process and then the hair regeneration condition is recorded every day. Since the period of the refractory telogen phase is 28 days, it is regarded as a negative result that no hair regeneration is observed at thirtieth day after the administration of the sample solution.
The number x of the hair growth in the table 3 means that the hair regeneration condition is observed at the x'th day after the high dosage level is administrated on the dorsal skin. For instance, the number (x=5) means that the hair growth is observed at the fifth day. Furthermore, the symbol NA represents the need for further analysis. […] In addition, the “negative” represents no hair growth by using the peptide in accordance with the experimental number.

β-catenin [2] = experiment: TCF reporter assay in Human Hair Follicular Keratinocytes (HHFK) cell line; format: cell-based; details: 200 μM peptide, vs untreated CTL, listed as SEQ ID No: 1 peptide
Method: (§1) FIG. 4 illustrates a schematic view of a TCF reporter assay in Human Hair Follicular Keratinocytes (HHFK) cell line. TOP represents that the reporter gene has a functional binding site where β-catenin is bound. […] CTL represents that HHFK cell line is not treated with any stimulant. iPept-2 means that HHFK cell line is treated with the SEQ ID No: 1 peptide.
(§2) The SEQ ID No. 1 peptide is treated in Human Hair Follicular Keratinocytes (HHFK) and HaCaT Keratinocyte to study the hair growth mechanism induced by the SEQ ID No. 1 peptide.
(§3) In the present disclosure, HHFK and HaCaT Keratinocyte are used as cell models for realizing the mechanism. Reporter assay is used as bioactivity assays to identify how the SEQ ID No. 1 peptide improves hair growth.

β-catenin [3] = experiment: TCF reporter assay in HaCaT Keratinocyte cell line; format: cell-based; details: 200 μM peptide; HaCaT Keratinocytes; vs untreated CTL; listed as SEQ ID No: 1 peptide
Method: as §1, with “3” for “4”, “HaCaT Keratinocyte” for “Human Hair Follicular Keratinocytes (HHFK)”, “HaCaT Keratinocytes are” for “HHFK cell line is”
as §2, §3

For “QAGSFGFRSSSR (a designed peptide according to experiments) [P36]”, the “Number x (hair regeneration condition is observed at the x'th day after administration)” value (“Number x” for short) [1] was “negative”.
In the case of “SPLAQAVRSSSR (a designed peptide according to experiments) [P1]”, the “activity of β-catenin (relative luciferase activity, TOP/FOP reporter)” value (β-catenin [2]) is reported as “increase the activity of β-catenin; also recorded: enhance activity of β-catenin”, the “activity of β-catenin (relative luciferase activity, TOP/FOP reporter)” value (β-catenin [3]) is reported as “increase the activity of β-catenin; also recorded: enhance activity of β-catenin” and the “Number x” value [1] is reported as 22 days.
In the case of “SPLAQAVGSFGS (a designed peptide according to experiments) [P22]”, the “Number x” value [1] is reported as “negative”.
For “VRSSS (a designed peptide according to experiments) [P2]”, the “Number x” value [1] was “negative”.
For “SPLAQAVRSSS (a designed peptide according to experiments) [P6]”, the “Number x” value [1] was “negative”.
In the case of “SPLAQA (a designed peptide according to experiments) [P11]”, the “Number x” value [1] is reported as 22 days.
For “AQAVRSSSR (a designed peptide according to experiments) [P14]”, the “Number x” value [1] was 22 days.
“GSFGSFVRSSSR (a designed peptide according to experiments) [P32]” was tested, and the “Number x” value [1] was “negative”.
In the case of “SPLAQAV (a designed peptide according to experiments) [P10]”, the “Number x” value [1] is reported as 22 days.
For “GSLAQAVRSSSR (a designed peptide according to experiments) [P28]”, the “Number x” value [1] was “negative”.
For “GSFGQAVRSSSR (a designed peptide according to experiments) [P30]”, the “Number x” value [1] was “negative”.
In the case of “LAQAGSVRSSSR (a designed peptide according to experiments) [P34]”, the “Number x” value [1] is reported as “negative”.
For “SPLAQFRSSSRG (a designed peptide according to experiments) [P33]”, the “Number x” value [1] was “negative”.
SPLAQAVRSSSG [P18] was tested, and the “Number x” value [1] was “negative”.
For “AGSFFSGRSSSR (a designed peptide according to experiments) [P37]”, the “Number x” value [1] was 22 days.
In the case of “SPLAQAVRSSGS (a designed peptide according to experiments) [P19]”, the “Number x” value [1] is reported as “negative”.
For “SPLAQAVRGSFG (a designed peptide according to experiments) [P21]”, the “Number x” value [1] was “negative”.
In the case of “AVRSSSR (a designed peptide according to experiments) [P16]”, the “Number x” value [1] is reported as “negative”.
“SPLAQAVRSSSRTPS (a designed peptide according to experiments) [P4]” was tested, and the “Number x” value [1] was 22 days.
In the case of “SPLAQAVR (a designed peptide according to experiments) [P9]”, the “Number x” value [1] is reported as 19 days.
With “RSSSR (a designed peptide according to experiments) [P5]” the “Number x” value [1] was 22 days.
In the case of “SPLAQAVRS (a designed peptide according to experiments) [P8]”, the “Number x” value [1] is reported as “negative”.
In the case of “SPLAQAVRSS (a designed peptide according to experiments) [P7]”, the “Number x” value [1] is reported as 22 days.
With “AQAGSFVRSSSR (a designed peptide according to experiments) [P35]” the “Number x” value [1] was “negative”.
With SPLAQGSFGSFG [P24] the “Number x” value [1] was “negative”.
“SPLAQAVRSGSF (a designed peptide according to experiments) [P20]” was tested, and the “Number x” value [1] was “negative”.
With “SPLAQAVRSSSRT (a designed peptide according to experiments) [P26]” the “Number x” value [1] was “negative”.
“LAQAVRSSSR (a designed peptide according to experiments) [P13]” was tested, and the “Number x” value [1] was 22 days.
With “GSFAQAVRSSSR (a designed peptide according to experiments) [P29]” the “Number x” value [1] was 22 days.
With “PLAQAVRSSSR (a designed peptide according to experiments) [P12]” the “Number x” value [1] was 22 days.
In the case of “QAVRSSSR (a designed peptide according to experiments) [P15]”, the “Number x” value [1] is reported as “negative”.
With “SPLAQAVRSSSRTP (a designed peptide according to experiments) [P25]” the “Number x” value [1] was “negative”.
For “SPLAQ (a designed peptide according to experiments) [P3]”, the “Number x” value [1] was 22 days.
In the case of “SPLAQAGSFGSF (a designed peptide according to experiments) [P23]”, the “Number x” value [1] is reported as “negative”.
In the case of “VRSSSR (a designed peptide according to experiments) [P17]”, the “Number x” value [1] is reported as “negative”.
With “GSFGSAVRSSSR (a designed peptide according to experiments) [P31]” the “Number x” value [1] was 22 days.
In the case of “GPLAQAVRSSSR (a designed peptide according to experiments) [P27]”, the “Number x” value [1] is reported as 22 days.
